{
  "source": "patent US20220281830A1",
  "about": "“SALT” (NIPPON SHINYAKU CO., LTD., priority 2019, published 2022)",
  "key": {"[1]": {"test": "Rat in vivo study: plasma pharmacokinetics of MRE-269 after oral capsule dosing", "design": "species or system Sprague-Dawley rat", "protocol": "Qualicaps, Nara, Japan) and given orally to male Sprague-Dawley rat (Japan SLC, Sizuoka, Japan) at a dose level of 1 mg/capsule/body. […] • The concentration of MRE-269 in plasma sample was determined by high performance liquid chromatography (HPLC) tandem mass spectrometry (LC-MS/MS). […] For LC-MS/MS, a Nexera HPLC system (Shimadzu, Kyoto, Japan) equipped with an InertSustain C18 column (2-μm particle size; 2.1 mm i.d.×50 mm; GL Science) connected to a TQ4500 or TQ5500 tandem mass spectrometer (Sciex, Framingham, Mass.) was used. The HPLC mobile phase was 0.1% formic acid (solvent A) and acetonitrile (solvent B). A gradient was run at 85% solvent B in 2.5 min at a flow rate of 0.4 mL/min and 40° C. Each analyte detected was quantified in positive ion multiple reaction monitoring mode by applying the following precursor-to-product transitions: […] • The pharmacokinetic parameters were calculated with Phoenix WinNonlin version 8.1.0 (Certara Princeton, NJ). Relative bioavailability (BA) to MRE-269 was calculated according to the following equation. Relative BA (%)=(AUC0-24(each salt)/(AUC0-24(MRE-269, mean)×100"}, "[2]": {"test": "Thermodynamic stability of the free-form crystal", "type": "physicochemical", "settings": "free form produced according to Example 42 of PTL 1", "source_text": "A method for producing Compound B is disclosed in Example 42 of PTL 1. […] Thus, the present invention was completed."}, "[3]": {"settings": "MRE-269 in plasma, male Sprague-Dawley rat, oral, HPMC capsule, 1 mg/capsule/body"}},
  "note": "Like-named read-outs stand apart in the source and are kept apart here.",
  "data": [
    {"smiles": "CC(C)N(CCCCOCC(=O)O)c1cnc(-c2ccccc2)c(-c2ccccc2)n1.O=S(=O)(O)CCS(=O)(=O)O", "note": "[1,2-Ethanedisulfonate salt (Pattern A), 1,2-Ethanedisulfonate salt of 2-[4-[(5,6-diphenylpyrazin-2-yl)-propan-2-ylamino]butoxy]acetic acid]", "values": [
      {"measurement": "t1/2", "setting": "[1]; rat, in vivo, po", "value": "3.99 ± 2.01", "unit": "h"},
      {"measurement": "tmax", "setting": "[1]; rat, in vivo, po", "value": "3.10 ± 2.30", "unit": "h"}
    ]},
    {"smiles": "CC(C)N(CCCCOCC(=O)[O-])c1cnc(-c2ccccc2)c(-c2ccccc2)n1.CC(C)N(CCCCOCC(=O)[O-])c1cnc(-c2ccccc2)c(-c2ccccc2)n1.[Ca+2]", "note": "[Calcium salt (Pattern 1), Calcium salt of 2[4-[(5,6-diphenylpyrazin-2-yl)-propan-2-ylamino]butoxy]acetic acid]", "values": [
      {"measurement": "tmax", "setting": "[1]; rat, in vivo, po", "value": "7.50 ± 3.79", "unit": "h"}
    ]},
    {"smiles": "CC(C)N(CCCCOCC(=O)O)c1cnc(-c2ccccc2)c(-c2ccccc2)n1", "note": "[MRE-269, 2-(4-((5,6-diphenylpyrazin-2-yl)(isopropyl)amino)butoxy)acetic acid, reference compound]", "values": [
      {"measurement": "AUC(0-t)", "setting": "[1]; [3]", "value": "5620 ± 1920", "unit": "ng·h/mL"},
      {"measurement": "Cmax", "setting": "[1]; MRE-269 in plasma, male Sprague-Dawley rat, oral, HPMC capsule, 1 mg/capsule/body, read-out: Cmax", "value": "475 ± 142", "unit": "ng/mL"},
      {"measurement": "tmax", "setting": "[1]; MRE-269 in plasma, male Sprague-Dawley rat, oral, HPMC capsule, 1 mg/capsule/body, read-out: tmax", "value": "6.5 ± 3", "unit": "h"}
    ]},
    {"smiles": "CC(C)N(CCCCOCC(=O)[O-])c1cnc(-c2ccccc2)c(-c2ccccc2)n1.[K+]", "note": "[Potassium salt, Potassium salt of 2-[4-[(5,6-diphenylpyrazin-2-yl)-propan-2-ylamino]butoxy]acetic acid]", "values": [
      {"measurement": "t1/2", "setting": "[1]; rat, in vivo, po", "value": "8.96 ± 8.00", "unit": "h"},
      {"measurement": "tmax", "setting": "[1]; rat, in vivo, po", "value": "3.25 ± 3.20", "unit": "h"}
    ]},
    {"smiles": "CC(C)N(CCCCOCC(=O)[O-])c1cnc(-c2ccccc2)c(-c2ccccc2)n1.[Na+]", "note": "[Sodium salt, Sodium salt of 2-[4-[(5,6-diphenylpyrazin-2-yl)-propan-2-ylamino]butoxy]acetic acid]", "values": [
      {"measurement": "tmax", "setting": "[1]; rat, in vivo, po", "value": "7.50 ± 1.91", "unit": "h"}
    ]},
    {"smiles": "CC(C)N(CCCCOCC(=O)O)c1cnc(-c2ccccc2)c(-c2ccccc2)n1.NC(CO)(CO)CO", "note": "[Tromethamine salt, Tromethamine salt of 2-[4-[(5,6-diphenylpyrazin-2-yl)-propan-2-ylamino]butoxy]acetic acid]", "values": [
      {"measurement": "AUC0-last", "setting": "[1]; [3]", "value": "7170 ± 2320", "unit": "ng·h/mL"},
      {"measurement": "AUC0-∞", "setting": "[1]; [3]", "value": "6520 ± 1890", "unit": "ng·h/mL"},
      {"measurement": "Cmax", "setting": "[1]; [3]", "value": "949 ± 555", "unit": "ng/mL"},
      {"measurement": "t1/2", "setting": "[1]; [3]", "value": "3.48 ± 0.43", "unit": "h"},
      {"measurement": "tmax", "setting": "[1]; [3]", "value": "4.00 ± 3.94", "unit": "h"},
      {"measurement": "relative BA", "setting": "[1]; relative to MRE-269: AUC0-24(each salt)/AUC0-24(MRE-269, mean)×100, rat, oral, 1 mg/capsule/body", "value": "128 ± 41", "unit": "%"}
    ]},
    {"smiles": "CC(C)N(CCCCOCC(=O)O)c1cnc(-c2ccccc2)c(-c2ccccc2)n1", "note": "[form-III crystal, 2-(4-((5,6-diphenylpyrazin-2-yl)(isopropyl)amino)butoxy)acetic acid]", "values": [
      {"measurement": "thermodynamic stability", "setting": "[2]", "value": "thermodynamically unstable"}
    ]}
  ]
}
